Experimental data as given in US7414069B2, “Antituberculosis compounds, Hirsutellones A, B, and C” (National Center for Genetic Engineering & Biotechnology, …, priority 2004, dated 2008).
≈ marks a conversion by molar mass, not a printed value.

Assays:
[1] = Cytotoxicity against NCI-H187 cells (sulforhodamine B staining); type: cell-based; settings: human, NCI-H187 cells (lung cancer, ATCC CRL-5804), starting concentration 20 μg/ml
Experimental: (§1) Hirsutellones A, B and C were tested for cytotoxicity by incubating with Vero cells (African green monkey kidney cell line from American Type Culture Collection USA; ATCC # CCL-81). Each compound was dissolved in dimethyl sulfoxide and then diluted in the culture medium of the Vero cells (Eagle's Minimum Essential with 10% heat-inactivated fetal bovine serum and antibiotics). The Vero cells and the compound were incubated together in a 96-well microplate at a cell concentration of 1.9×10^4 cells/190 μl/well, in a CO2 incubator at 37° C. for 3 days.
(§2) The numbers of the cells in the wells were then determined by a staining method (Skehan, P., et al., J. Natl Cancer Inst., 82:1107-1112 (1990)). The cells were initially fixed by 50% cold trichloroacetic acid (TCA) at 4° C. for 30 minutes. The cells were then washed with water 4 times. After drying, the cells were stained with 0.05% sulforhodamine B in 1% acetic acid for 30 minutes, washed with ^1% acetic acid 4 times and dried at room temperature. Finally, 10 mM Tris-base pH 10 was added. The absorbance at 510 nm of test wells was measured by an ELISA microplate reader. The absorbance was proportionate to the number of the viable cells in the wells. The toxicity level of the compound was recorded as the concentration that rendered the number of viable cells to be less than half of the negative control wells, which contained the cells with DMSO but not the compound. Ellipticine was used as a positive control. The toxicity level of each compound against Vero cells was expressed as IC50.
(§3) Hirsutellones were also tested for cytotoxicity against multiple human cancer cell lines, to study the effects on human cells in vitro. The cancer cell lines included KB cells (oral epidermoid carcinoma; ATCC # CCL-17), BC cells (breast cancer) and NCI-H187 cells (lung cancer; ATCC # CRL-5804) The same protocol as that for the cytotoxicity assay against Vero cells was used, except for the starting compound concentration which was 20 μg/ml.

[2] = system: Mycobacterium tuberculosis H37Ra strain (ATCC 25166); assay: Microplate Alamar Blue Assay (MABA), antituberculous activity; type: cell-based; settings: M. tuberculosis H37Ra, two-fold serial dilution from 50 μg/ml
Experimental: Preparation of Mycobacteria Mycobacterium tuberculosis H37Ra strain (ATCC 25166) was grown in 100 ml of Middlebrook 7H9 broth supplemented with 0.2% glycerol, 1.0 g/l of casitone, 10% OADC, and 0.05% Tween 80. The complete medium was referred to as 7H9GC-Tween. The bacteria were incubated in 500-ml flasks on a rotary shaker at 200 rpm and 37° C. until the optical density at 550 nm reached 0.4-0.5. The bacteria were washed twice with phosphate-buffered saline and then suspended in 20 ml of phosphate-buffered saline. The suspension was passed through an 8-μm-pore-size filter to eliminate clumps. The number of bacteria in the filtrates were counted by plating the bacteria in Middlebrook 7H10 agar. The filtrates were stored at −80° C.
Microplate Alamar Blue Assays (MABA) Anti-tuberculous testing was performed in a 96-well microplate as previously described (Collins, L. and Franzblau, S. G., Antimicrob. Agents Chemother., 41:1004-1009 (1997)). Outer perimeter wells were filled with sterile water to prevent dehydration of the test wells. Crude extracts were initially diluted with dimethyl sulfoxide, and then were diluted to a concentration of 400 μg/ml in Middlebrook 7H9 medium containing 0.2% V/V glycerol and 1.0 g/l casitone (7H9GC). The wells in rows B to G in columns 2, 4, 5, 6, 8, 9, 10 of the microplate were filled with 100 μl of 7H9GC. The wells in column 11 were inoculated with 200 μl of the medium to serve as media controls (M). Bacteria (only) controls (B) were set-up in column 10. One hundred microliters of each crude extract solution (400 μg/ml) were added to three wells in one row in columns 2 (or 6), 3 (or 7) and 4 (or 8). One hundred microliters were transferred from column 4 (or 8) to column 5 (or 9), the contents of the wells in column 5 (or 9) were mixed well and then 100 μl of mixed medium were discarded. The wells in columns 2 and 6 served as test sample controls.
Frozen bacterial inocula were diluted 1:200 in 7H9GC medium. One hundred microliters of the bacteria were added to the wells in rows B to G in columns 3 (or 7), 4 (or 8), 5 (or 9) and 10, resulting in final bacterial titers of approximately 5×10^4 CFU/ml. The wells in column 10 served as bacteria (only) controls (B). Final concentrations of extracts were 200, 100 and 50 μg/ml in columns 3 (or 7), 4 (or 8) and 5 (or 9), respectively.
The plates were sealed with Parafilm and were incubated at 37° C. for 5 days. At day 6 of incubation, 20 μl of Alamar Blue reagent and 12.5 μl of 20% Tween 80 were added to well B10 (B) and B11 (M). The plates were re-incubated at 37° C. for 24 h. […] If the B wells became pink by 24 h, reagent was added to the entire plate. If the well remained blue, the additional M and B wells were tested daily until a color change occurred at which time reagents were added to all remaining wells. The microplates were resealed with Parafilm and were then incubated at 37° C. The results were recorded 24 h after adding reagent.
Blue color in the well was interpreted as no growth, reflecting the activity of the test compound in the well. A pink color was scored as growth and reflected the lack of activity of the test compound. A few wells appeared violet after 24 h of incubation, but they invariably changed to pink after extra day of incubation and thus were scored as growth (while the adjacent blue wells remained blue). […]

[3] = Cytotoxicity against BC cells (sulforhodamine B staining); type: cell-based; settings: human, BC cells (breast cancer), starting concentration 20 μg/ml
Experimental: as §1, §2, §3

[4] = Cytotoxicity against KB cells (sulforhodamine B staining); type: cell-based; settings: human, KB cells (oral epidermoid carcinoma, ATCC CCL-17), starting concentration 20 μg/ml
Experimental: as §1, §2, §3

[5] = Cytotoxicity against Vero cells (sulforhodamine B staining); type: cell-based; settings: African green monkey, Vero cells (ATCC CCL-81), 37° C.
Experimental: as §1, §2

Structure (SMILES) | IC50 at 3 days [1] | MIC [2] | IC50 at 3 days [3] | IC50 at 3 days [4] | IC50 at 3 days [5] | melting point
C=CC1C=CC2C3CC(C)CCC3C3Oc4ccc(cc4)CC4C(=O)NC(=O)C4C(=O)C1C23 (centres unmarked) [Hirsutellone A] | > 20 µg/mL | 0.78 µg/mL (≈ 1.75 µM) | > 20 µg/mL | > 20 µg/mL | > 50 µg/mL | –
NNC(=O)c1ccncc1 [isoniazid, reference compound] | – | 0.04 µg/mL (≈ 0.292 µM) | – | – | – | –
C=CC1C=CC2C3CC(C)CCC3C3Oc4ccc(cc4)CC4(O)NC(=O)C5(OC45)C(=O)C1C23 (centres unmarked) [Hirsutellone C] | 8.3 µg/mL (≈ 18 µM) | 0.78 µg/mL (≈ 1.69 µM) | 3.2 µg/mL (≈ 6.93 µM) | 4.6 µg/mL (≈ 9.97 µM) | 12 µg/mL (≈ 26 µM) | 234 to 235 °C (dec.)
NC[C@H]1O[C@H](O[C@H]2[C@H](O)[C@@H](O[C@H]3O[C@H](CO)[C@@H](O)[C@H](N)[C@H]3O)[C@H](N)C[C@@H]2N)[C@H](O)[C@@H](O)[C@@H]1O [kanamycin, reference compound] | – | 2.5 µg/mL (≈ 5.16 µM) | – | – | – | –
Cc1c2ccncc2c(C)c2c1[nH]c1ccccc12 [Ellipticine, reference compound] | 0.39 µg/mL (≈ 1.58 µM) | – | 1.5 µg/mL (≈ 6.09 µM) | 1.3 µg/mL (≈ 5.28 µM) | 0.4 µg/mL (≈ 1.62 µM) | –
C=CC1C=CC2C3CC(C)CCC3C3Oc4ccc(cc4)CC4(O)CC(C(=O)N4)C(=O)C1C23 (centres unmarked) [Hirsutellone B] | 6 µg/mL (≈ 13.4 µM) | 0.78 µg/mL (≈ 1.74 µM) | > 20 µg/mL | > 20 µg/mL | > 50 µg/mL | 261 to 263 °C (dec.)
